Data published in PubChem BioAssay (NCI).
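How tested: cells in 96-well plates exposed to compound for 48 hours at five concentrations. The concentration for full growth arrest is given as TGI.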

Assays:
Assay in all cases: NCI-60 cell line screen, 48 h
IGROV1 ovarian = system: IGROV1 ovarian
LOX IMVI melanoma = system: LOX IMVI melanoma
SF-295 CNS = system: SF-295 CNS
NCI/ADR-RES ovarian = system: NCI/ADR-RES ovarian
SK-MEL-5 melanoma = system: SK-MEL-5 melanoma
MCF7 breast = system: MCF7 breast
UACC-257 melanoma = system: UACC-257 melanoma
HS 578T breast = system: HS 578T breast
MOLT-4 leukemia = system: MOLT-4 leukemia
SR leukemia = system: SR leukemia
SNB-75 CNS = system: SNB-75 CNS
MALME-3M melanoma = system: MALME-3M melanoma
SF-268 CNS = system: SF-268 CNS
MDA-MB-231 breast = system: MDA-MB-231 breast
SK-MEL-28 melanoma = system: SK-MEL-28 melanoma
SNB-19 CNS = system: SNB-19 CNS
PC-3 prostate = system: PC-3 prostate
HOP-62 NSCLC = system: HOP-62 NSCLC
OVCAR-8 ovarian = system: OVCAR-8 ovarian
DU-145 prostate = system: DU-145 prostate
NCI-H522 lung = system: NCI-H522 lung
RXF 393 renal = system: RXF 393 renal
M14 melanoma = system: M14 melanoma
MDA-MB-435 = system: MDA-MB-435
SW-620 colon = system: SW-620 colon
MDA-N = system: MDA-N
ACHN renal = system: ACHN renal
CCRF-CEM leukemia = system: CCRF-CEM leukemia
786-0 renal = system: 786-0 renal
NCI-H460 lung = system: NCI-H460 lung
A549 NSCLC = system: A549 NSCLC
BT-549 breast = system: BT-549 breast
HCC-2998 colon = system: HCC-2998 colon
HCT-15 colon = system: HCT-15 colon
HCT-116 colon = system: HCT-116 colon
HL-60(TB) leukemia = system: HL-60(TB) leukemia
SF-539 CNS = system: SF-539 CNS
UO-31 renal = system: UO-31 renal
U251 CNS = system: U251 CNS
SK-MEL-2 melanoma = system: SK-MEL-2 melanoma
T-47D breast = system: T-47D breast
UACC-62 melanoma = system: UACC-62 melanoma
A498 renal = system: A498 renal
OVCAR-4 ovarian = system: OVCAR-4 ovarian
TK-10 renal = system: TK-10 renal
RPMI-8226 leukemia = system: RPMI-8226 leukemia
HT29 colon = system: HT29 colon
SK-OV-3 ovarian = system: SK-OV-3 ovarian
NCI-H23 lung = system: NCI-H23 lung
COLO 205 colon = system: COLO 205 colon
SN12C renal = system: SN12C renal
OVCAR-3 ovarian = system: OVCAR-3 ovarian
OVCAR-5 ovarian = system: OVCAR-5 ovarian
NCI-H226 lung = system: NCI-H226 lung
CAKI-1 renal = system: CAKI-1 renal
K-562 leukemia = system: K-562 leukemia
KM12 colon = system: KM12 colon
HOP-92 NSCLC = system: HOP-92 NSCLC

Measured: TGI

COc1cc(C[C@@H](C)N)cc(OC)c1
98.4 µM: SNB-75 CNS
> 100 µM: IGROV1 ovarian | LOX IMVI melanoma | SF-295 CNS | NCI/ADR-RES ovarian | SK-MEL-5 melanoma | MCF7 breast | UACC-257 melanoma | HS 578T breast | MOLT-4 leukemia | SR leukemia | MALME-3M melanoma | SF-268 CNS | MDA-MB-231 breast | SK-MEL-28 melanoma | SNB-19 CNS | PC-3 prostate | HOP-62 NSCLC | OVCAR-8 ovarian | DU-145 prostate | NCI-H522 lung | RXF 393 renal | M14 melanoma | MDA-MB-435 | SW-620 colon | MDA-N | ACHN renal | CCRF-CEM leukemia | 786-0 renal | NCI-H460 lung | A549 NSCLC | BT-549 breast | HCC-2998 colon | HCT-15 colon | HCT-116 colon | HL-60(TB) leukemia | SF-539 CNS | UO-31 renal | U251 CNS | SK-MEL-2 melanoma | T-47D breast | UACC-62 melanoma | A498 renal | OVCAR-4 ovarian | TK-10 renal | RPMI-8226 leukemia | HT29 colon | SK-OV-3 ovarian | NCI-H23 lung | COLO 205 colon | SN12C renal | OVCAR-3 ovarian | OVCAR-5 ovarian | NCI-H226 lung | CAKI-1 renal | K-562 leukemia | KM12 colon

CC(=O)OC1CC2(C)C(OC(C)=O)CC1C2(C)C (configuration not stated)
> 100 µM: IGROV1 ovarian | LOX IMVI melanoma | SF-295 CNS | NCI/ADR-RES ovarian | SK-MEL-5 melanoma | MCF7 breast | UACC-257 melanoma | HS 578T breast | MOLT-4 leukemia | SR leukemia | SNB-75 CNS | MALME-3M melanoma | SF-268 CNS | MDA-MB-231 breast | HOP-92 NSCLC | SK-MEL-28 melanoma | SNB-19 CNS | PC-3 prostate | HOP-62 NSCLC | OVCAR-8 ovarian | DU-145 prostate | NCI-H522 lung | RXF 393 renal | M14 melanoma | MDA-MB-435 | SW-620 colon | MDA-N | ACHN renal | CCRF-CEM leukemia | 786-0 renal | NCI-H460 lung | A549 NSCLC | BT-549 breast | HCC-2998 colon | HCT-15 colon | HCT-116 colon | HL-60(TB) leukemia | SF-539 CNS | UO-31 renal | U251 CNS | T-47D breast | UACC-62 melanoma | OVCAR-4 ovarian | TK-10 renal | RPMI-8226 leukemia | HT29 colon | SK-OV-3 ovarian | NCI-H23 lung | COLO 205 colon | SN12C renal | OVCAR-3 ovarian | OVCAR-5 ovarian | NCI-H226 lung | K-562 leukemia | KM12 colon
